Where two headings read alike, the source gives them in different places.
Legend:
CYP3A4 = CYP3A4 (Homo sapiens, UniProt P08684); test: Metabolism of the compound of the formula I by the cytochromes P450; type: in vitro ADME; conditions: result in words
[1] = Pharmacokinetic drug-drug interaction of the compound of the formula I and ritonavir in healthy volunteers (single dose, alone and with RTV); type: in vivo, human; parameters: CL/F: unit not given here; conditions: for AUC(0-t) / Cmax / Tmax / half-life / AUC: human, plasma
Protocol: A single-dose, single treatment group was studied to assess the pharmacokinetic drug-drug interaction potential between the protease inhibitors the compound of the formula I and ritonavir. The compound of the formula I was administered as a solution containing 5 or 12.5 mg of the compound of the formula I, with excipients, and ritonavir was administered as the 100-mg marketed product (Norvir) 12 hours preceding and co-administration with the compound of the formula I . Baseline pharmacokinetic data for the compound of the formula I was obtained as single doses up through 100 mg. The co-administered drugs were compared with baseline data. The study was conducted in healthy volunteers Pharmacokinetic analyses were based on the results obtained in these subjects. Pharmacokinetic parameters such as AUC, Cmax, tmax, oral clearance, and terminal half-life were determined using standard noncompartmental techniques.

[2] = 12.5 mg oral single dose alone, mean
[3] = 25 mg oral single dose alone, mean
[4] = 50 mg oral single dose alone, mean
[5] = 75 mg oral single dose alone, mean
[6] = 100 mg oral single dose alone, mean
[7] = oral, 5 mg solution + RTV 100 mg, mean
[8] = oral, 5 mg, 5 mg alone (no RTV), mean
[9] = oral, 12.5 mg solution + RTV 100 mg, mean
[10] = oral, 12.5 mg, 12.5 mg alone (no RTV), mean (Table 1)
[11] = po, 12.5 mg, 12.5 mg oral single dose alone, mean (Table 2)
[12] = po, 25 mg, 25 mg oral single dose alone, mean
[13] = po, 50 mg, 50 mg oral single dose alone, mean
[14] = po, 75 mg, 75 mg oral single dose alone, mean
[15] = po, 100 mg, 100 mg oral single dose alone, mean
[16] = with ritonavir 100 mg versus alone

Sequence of CYP3A4 (P08684 whole entry): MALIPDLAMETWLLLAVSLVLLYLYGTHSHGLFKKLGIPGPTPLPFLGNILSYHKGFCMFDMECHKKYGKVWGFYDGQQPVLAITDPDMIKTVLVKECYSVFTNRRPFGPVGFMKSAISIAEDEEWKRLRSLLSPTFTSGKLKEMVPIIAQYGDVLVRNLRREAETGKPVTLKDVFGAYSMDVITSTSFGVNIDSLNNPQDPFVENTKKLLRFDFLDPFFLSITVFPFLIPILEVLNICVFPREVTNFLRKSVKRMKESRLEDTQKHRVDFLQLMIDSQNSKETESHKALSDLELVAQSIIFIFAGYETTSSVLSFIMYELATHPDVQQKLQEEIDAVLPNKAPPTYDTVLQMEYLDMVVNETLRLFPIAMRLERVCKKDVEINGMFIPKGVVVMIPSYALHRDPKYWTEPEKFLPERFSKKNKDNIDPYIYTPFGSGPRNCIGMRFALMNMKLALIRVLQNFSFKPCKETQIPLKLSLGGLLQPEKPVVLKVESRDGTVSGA

In the case of `CCN1c2ncc(CCOc3cc[n+]([O-])c4ccccc34)cc2C(=O)N(C)c2cccnc21` [the compound of the formula I, 5,11-Dihydro-11-ethyl-5-methyl-8-{2-{(1-oxido-4-quinolinyl)oxy}ethyl}-6H-dipyrido[3,2-b:2′,3′-e] [1,4]diazepin-6-one], the “metabolism by the cytochromes P450, especially the CYP3A4 isoform” value (CYP3A4) is reported as “surprisingly rapid metabolism”, the “% Renally eliminated as unchanged drug” value [1, 2] is reported as 0.21% and the CL/F [1, 2] is reported as 243495.99. The “% Renally eliminated as unchanged drug” value [1, 3] was 0.41%, the CL/F [1, 3] was 200752.61 and the “% Renally eliminated as unchanged drug” value [1, 4] was 0.48%. The CL/F [1, 4] was 124815.56, the “% Renally eliminated as unchanged drug” value [1, 5] was 0.60% and the CL/F [1, 5] was 263277.68. For the same molecule, the “% Renally eliminated as unchanged drug” value [1, 6] was 0.81%, the CL/F [1, 6] was 75634.54 and the AUC(0-t) ([1]; oral, 5 mg solution + RTV 100 mg (12 h before and co-administered), mean) was 578 ng·h/mL. The Cmax [1, 7] was 22.8 ng/mL, the Tmax [1, 7] was 4 h and the half-life ([1]; oral, 5 mg solution + RTV 100 mg, mean, read-out: half-life (converted)) was 15.3 h. The AUC(0-t) [1, 8] was 13.6 ng·h/mL, the Cmax [1, 8] was 3.64 ng/mL and the Tmax [1, 8] was 1.5 h. The AUC(0-t) ([1]; oral, 12.5 mg solution + RTV 100 mg (12 h before and co-administered), mean) was 1700 ng·h/mL, the Cmax [1, 9] was 74.1 ng/mL and the Tmax [1, 9] was 3.59 h. The half-life ([1]; oral, 12.5 mg solution + RTV 100 mg, mean, read-out: half-life (converted)) was 15.9 h, the AUC(0-t) [1, 10] was 57.1 ng·h/mL and the Cmax [1, 10] was 14.8 ng/mL. It also gave a Tmax [1, 10] of 1 h, a half-life ([1]; oral, 12.5 mg, 12.5 mg alone (no RTV), mean (Table 1), read-out: half-life (converted)) of 4.1 h and a half-life ([1]; oral, co-administration with ritonavir 100 mg, read-out: half-life upon co-administration with ritonavir (converted)) of 15 h. The half-life ([1]; oral, without ritonavir, single dose range of 1-100 mg, read-out: half-life without ritonavir (converted)) was about 2 h, the Cmax [1, 11] was 14.8 ng/mL and the Tmax [1, 11] was 1 h. The half-life ([1]; po, 12.5 mg, 12.5 mg oral single dose alone, mean (Table 2), read-out: Half-life (converted)) was 4.1 h, the Cmax [1, 12] was 41.6 ng/mL and the Tmax [1, 12] was 0.83 h. The half-life ([1]; po, 25 mg, 25 mg oral single dose alone, mean, read-out: Half-life (converted)) was 3.44 h, the Cmax [1, 13] was 164 ng/mL and the Tmax [1, 13] was 0.67 h. It also gave a half-life ([1]; po, 50 mg, 50 mg oral single dose alone, mean, read-out: Half-life (converted)) of 2.5 h, a Cmax [1, 14] of 348 ng/mL and a Tmax [1, 14] of 0.67 h. It also gave a half-life ([1]; po, 75 mg, 75 mg oral single dose alone, mean, read-out: Half-life (converted)) of 2.21 h, a Cmax [1, 15] of 937 ng/mL and a Tmax [1, 15] of 0.55 h. The half-life ([1]; po, 100 mg, 100 mg oral single dose alone, mean, read-out: Half-life (converted)) was 1.86 h, the AUC ([1]; 12.5 mg oral single dose alone, mean (Table 2)) was 63.1 ng·h/mL and the AUC [1, 3] was 139 ng·h/mL. It also gave an AUC [1, 4] of 437 ng·h/mL, an AUC [1, 5] of 817 ng·h/mL and an AUC [1, 6] of 1390 ng·h/mL. The “increase of AUC (plasma concentrations as measured by area under the curve) in the presence of ritonavir” value [1, 16] was about 40 fold and the “increase of mean Cmax in the presence of ritonavir” value [1, 16] was 5-6 fold.

— patent publication US20080096832A1, “Method for Improving the Pharmacokinetics of an NNRTI” (Boehringer Ingelheim International GmbH, priority 2002, published 2008)
